Tested on: MV-4-11 cells
Experiment: Gene expression microarray analysis (Affymetrix PrimeView) and GSEA
Assay type: cell-based, human
Parameters: RFU PODN (11730768_x_at) / Fold change /veh PODN (11730768_x_at) / RFU LINC00158 (11744669_a_at) / Fold change /veh LINC00158 (11744669_a_at) / RFU DUSP10 (11751237_a_at) / Fold change /veh DUSP10 (11751237_a_at) / RFU ID3 (11757404_x_at) / Fold change /veh ID3 (11757404_x_at) / RFU PLEKHG5 (11737974_s_at) / Fold change /veh PLEKHG5 (11737974_s_at) / RFU LRRC4B (11730491_at) / Fold change /veh LRRC4B (11730491_at) / RFU GIMAP4 (11747438_a_at) / Fold change /veh GIMAP4 (11747438_a_at) / RFU KRT8 (11758183_x_at) / Fold change /veh KRT8 (11758183_x_at) / RFU CNN1 (11734310_a_at) / Fold change /veh CNN1 (11734310_a_at) / RFU VPS37D (11726825_at) / Fold change /veh VPS37D (11726825_at) / RFU C10orf10 (11716522_x_at) / Fold change /veh C10orf10 (11716522_x_at) / RFU KIR2DL2 /// KIR2DL4 /// KIR2DL5A /// KIR2DL5B /// KIR2DS1 /// KIR2DS2 /// KIR2DS3 /// KIR2DS4 /// KIR3DL3 /// KIR3DL3 /// KIR3DS1 (11738374_at) / Fold change /veh KIR2DL2 /// KIR2DL4 /// KIR2DL5A /// KIR2DL5B /// KIR2DS1 /// KIR2DS2 /// KIR2DS3 /// KIR2DS4 /// KIR3DL3 /// KIR3DL3 /// KIR3DS1 (11738374_at) / RFU C1QL1 (11718748_at) / Fold change /veh C1QL1 (11718748_at) / RFU TMPRSS4 (11747572_a_at) / Fold change /veh TMPRSS4 (11747572_a_at) / RFU HAMP (11756126_x_at) / Fold change /veh HAMP (11756126_x_at) / RFU RNFT2 (11725882_a_at) / Fold change /veh RNFT2 (11725882_a_at) / RFU NR4A2 (11747474_a_at) / Fold change /veh NR4A2 (11747474_a_at) / RFU ABCC12 (11746883_a_at) / Fold change /veh ABCC12 (11746883_a_at) / RFU TMEM136 (11760407_x_at) / Fold change /veh TMEM136 (11760407_x_at) / RFU CLDN22 /// WWC2 (11732394_at) / Fold change /veh CLDN22 /// WWC2 (11732394_at) / RFU HLA-DPB1 (11760878_x_at) / Fold change /veh HLA-DPB1 (11760878_x_at) / RFU SPINT1 (11716480_a_at) / Fold change /veh SPINT1 (11716480_a_at) / RFU GAP43 (11754022_s_at) / Fold change /veh GAP43 (11754022_s_at) / RFU A4GNT (11735810_at) / Fold change /veh A4GNT (11735810_at) / RFU PRB3 (11715151_x_at) / Fold change /veh PRB3 (11715151_x_at) / RFU TUBB4B (11761932_at) / Fold change /veh TUBB4B (11761932_at) / RFU CAPN14 (11732068_a_at) / Fold change /veh CAPN14 (11732068_a_at) / RFU TMCC2 (11721928_a_at) / Fold change /veh TMCC2 (11721928_a_at) / RFU IRGQ (11745062_a_at) / Fold change /veh IRGQ (11745062_a_at) / RFU FAM174B (11720279_a_at) / Fold change /veh FAM174B (11720279_a_at) / RFU TMPRSS4 (11748680_a_at) / Fold change /veh TMPRSS4 (11748680_a_at) / RFU FAM212B (11763350_a_at) / Fold change /veh FAM212B (11763350_a_at) / RFU PLEKHG5 (11743358_a_at) / Fold change /veh PLEKHG5 (11743358_a_at) / RFU ZSCAN30 (11745921_a_at) / Fold change /veh ZSCAN30 (11745921_a_at) / RFU CMKLR1 (11741424_a_at) / Fold change /veh CMKLR1 (11741424_a_at) / RFU LOC101060620 /// MAPK8IP1 (11723275_at) / Fold change /veh LOC101060620 /// MAPK8IP1 (11723275_at) / RFU SPTSSB (11747773_x_at) / Fold change /veh SPTSSB (11747773_x_at) / RFU PRSS12 (11739890_at) / Fold change /veh PRSS12 (11739890_at) / RFU BIN1 (11741810_x_at) / Fold change /veh BIN1 (11741810_x_at) / RFU WNT11 (11732464_a_at) / Fold change /veh WNT11 (11732464_a_at) / RFU C10orf10 (11716521_a_at) / Fold change /veh C10orf10 (11716521_a_at) / RFU C5orf56 (11738089_at) / Fold change /veh C5orf56 (11738089_at) / RFU CYB561 (11721691_x_at) / Fold change /veh CYB561 (11721691_x_at) / RFU ANKRD19P (11752326_a_at) / Fold change /veh ANKRD19P (11752326_a_at) / RFU OR2T12 /// OR2T33 /// OR2T8 (11738714_s_at) / Fold change /veh OR2T12 /// OR2T33 /// OR2T8 (11738714_s_at) / RFU VCAN (11748164_a_at) / Fold change /veh VCAN (11748164_a_at) / RFU JSRP1 (11732532_at) / Fold change /veh JSRP1 (11732532_at) / RFU KRTAP10-11 (11738290_x_at) / Fold change /veh KRTAP10-11 (11738290_x_at) / RFU MYO3A (11730013_a_at) / Fold change /veh MYO3A (11730013_a_at) / RFU EBF3 (11725865_a_at) / Fold change /veh EBF3 (11725865_a_at) / RFU CAMK2N1 (11719241_x_at) / Fold change /veh CAMK2N1 (11719241_x_at) / RFU C5orf56 (11738088_a_at) / Fold change /veh C5orf56 (11738088_a_at) / RFU OLFML3 (11715873_a_at) / Fold change /veh OLFML3 (11715873_a_at) / RFU LOC100653217 /// NTM (11731650_a_at) / Fold change /veh LOC100653217 /// NTM (11731650_a_at) / RFU MAPK11 (11762145_a_at) / Fold change /veh MAPK11 (11762145_a_at) / RFU FIZ1 (11724087_x_at) / Fold change /veh FIZ1 (11724087_x_at) / RFU OASL (11726364_x_at) / Fold change /veh OASL (11726364_x_at) / RFU SOX15 (11748057_x_at) / Fold change /veh SOX15 (11748057_x_at) / RFU CD79A (11719716_a_at) / Fold change /veh CD79A (11719716_a_at) / RFU HIST1H1D (11736915_at) / Fold change /veh HIST1H1D (11736915_at) / RFU CASKIN2 (11723855_a_at) / Fold change /veh CASKIN2 (11723855_a_at) / RFU LOC730098 (11760151_x_at) / Fold change /veh LOC730098 (11760151_x_at) / RFU OR4N2 (11742367_at) / Fold change /veh OR4N2 (11742367_at) / RFU PRRT2 (11749266_a_at) / Fold change /veh PRRT2 (11749266_a_at) / RFU SNX32 (11753110_a_at) / Fold change /veh SNX32 (11753110_a_at) / RFU CDHR5 (11726645_a_at) / Fold change /veh CDHR5 (11726645_a_at) / RFU RCAN1 (11760418_a_at) / Fold change /veh RCAN1 (11760418_a_at) / RFU FAM167A (11723789_a_at) / Fold change /veh FAM167A (11723789_a_at) / RFU FAM26E (11764081_at) / Fold change /veh FAM26E (11764081_at) / RFU ISYNA1 (11749810_s_at) / Fold change /veh ISYNA1 (11749810_s_at) / RFU ACY1 (11761880_at) / Fold change /veh ACY1 (11761880_at) / RFU 11764098_at / Fold change /veh 11764098_at / RFU SAMD14 (11745864_x_at) / Fold change /veh SAMD14 (11745864_x_at) / RFU NPB (11741838_a_at) / Fold change /veh NPB (11741838_a_at) / RFU TMPRSS6 (11731388_a_at) / Fold change /veh TMPRSS6 (11731388_a_at) / RFU KRTAP10-2 (11738614_at) / Fold change /veh KRTAP10-2 (11738614_at) / RFU ARHGAP8 /// PRR5-ARHGAP8 (11727945_x_at) / Fold change /veh ARHGAP8 /// PRR5-ARHGAP8 (11727945_x_at) / RFU KRTAP5-7 /// NADSYN1 (11734609_at) / Fold change /veh KRTAP5-7 /// NADSYN1 (11734609_at) / RFU RASL12 (11751679_a_at) / Fold change /veh RASL12 (11751679_a_at) / RFU CDKN2B (11736163_a_at) / Fold change /veh CDKN2B (11736163_a_at) / RFU PRF1 (11729649_at) / Fold change /veh PRF1 (11729649_at) / RFU, ZNF638 /// ZNF638-IT1 / Fold change vs veh, ZNF638 /// ZNF638-IT1 / RFU, PANK3 / Fold change vs veh, PANK3 / RFU, SH3YL1 / Fold change vs veh, SH3YL1 / RFU, ZEB2 / Fold change vs veh, ZEB2 / RFU, NRIP1 / Fold change vs veh, NRIP1 / RFU, PTTG1IP / Fold change vs veh, PTTG1IP / RFU, CAPN2 / Fold change vs veh, CAPN2 / RFU, MED14 / Fold change vs veh, MED14 / RFU, SNORA58 / Fold change vs veh, SNORA58 / RFU, C1orf63 / Fold change vs veh, C1orf63 / RFU, LRRFIP1 / Fold change vs veh, LRRFIP1 / RFU, NDUFAF7 / Fold change vs veh, NDUFAF7 / RFU, SLC12A2 / Fold change vs veh, SLC12A2 / RFU, IBTK / Fold change vs veh, IBTK / RFU, ESF1 / Fold change vs veh, ESF1 / Fold change vs veh, TMEM50B / RFU, TAOK1 / Fold change vs veh, TAOK1 / RFU, ACBD3 / Fold change vs veh, ACBD3 / RFU, TMA16 / Fold change vs veh, TMA16 / RFU, RWDD3 / Fold change vs veh, RWDD3 / RFU, BCAT1 / Fold change vs veh, BCAT1 / RFU, EDEM3 / Fold change vs veh, EDEM3 / RFU, TMEM33 / Fold change vs veh, TMEM33 / RFU, WDR75 / Fold change vs veh, WDR75 / RFU, AHCTF1 / Fold change vs veh, AHCTF1 / RFU, TFRC / Fold change vs veh, TFRC / RFU, ZDHHC17 / Fold change vs veh, ZDHHC17 / RFU, NOM1 / Fold change vs veh, NOM1 / RFU, ARL8B / Fold change vs veh, ARL8B / RFU, ZBTB11 / Fold change vs veh, ZBTB11 / RFU, TAMM41 / Fold change vs veh, TAMM41 / RFU, KIAA1704 /// LOC100996395 / Fold change vs veh, KIAA1704 /// LOC100996395 / RFU, ING1 / Fold change vs veh, ING1 / RFU, TRMT61B / Fold change vs veh, TRMT61B / RFU, FUBP3 / Fold change vs veh, FUBP3 / RFU, TP53 / Fold change vs veh, TP53 / RFU, TNKS2 / Fold change vs veh, TNKS2 / RFU, ZFP14 / Fold change vs veh, ZFP14 / RFU, ACTR2 / Fold change vs veh, ACTR2 / RFU, PPP3R1 / Fold change vs veh, PPP3R1 / RFU, PIK3R1 / Fold change vs veh, PIK3R1 / RFU, HNRNPA1 / Fold change vs veh, HNRNPA1 / RFU, RNF170 / Fold change vs veh, RNF170 / RFU, ZNF28 / Fold change vs veh, ZNF28 / RFU, RNGTT / Fold change vs veh, RNGTT / RFU, OGT / Fold change vs veh, OGT / RFU, BRD1 / Fold change vs veh, BRD1 / RFU, MARS / Fold change vs veh, MARS / RFU, ZNF655 / Fold change vs veh, ZNF655 / RFU, FAHD1 / Fold change vs veh, FAHD1 / RFU, BDP1 / Fold change vs veh, BDP1 / RFU, LRRCC1 / Fold change vs veh, LRRCC1 / RFU, ARID1A / Fold change vs veh, ARID1A / RFU, ZNF146 / Fold change vs veh, ZNF146 / RFU, ZNF330 / Fold change vs veh, ZNF330 / RFU, GPN3 / Fold change vs veh, GPN3 / RFU, C9orf123 / Fold change vs veh, C9orf123 / RFU, N4BP2L2 / Fold change vs veh, N4BP2L2 / RFU, ARFIP1 / Fold change vs veh, ARFIP1 / RFU, FAM179B / Fold change vs veh, FAM179B / RFU, BCL10 / Fold change vs veh, BCL10 / RFU, UHRF1BP1L / Fold change vs veh, UHRF1BP1L / RFU, BET1 / Fold change vs veh, BET1 / RFU, CNOT2 / Fold change vs veh, CNOT2 / RFU, ZNF268 / Fold change vs veh, ZNF268 / Fold change vs veh, ZNF507 / RFU, DGCR2 / Fold change vs veh, DGCR2 / RFU, WDSUB1 / Fold change vs veh, WDSUB1 / Fold change vs veh, HSP90B1 /// MIR3652 / RFU, ADSS / Fold change vs veh, ADSS / RFU, GK / Fold change vs veh, GK / RFU, ZNF148 / Fold change vs veh, ZNF148 / RFU, TAF9 / Fold change vs veh, TAF9 / RFU, SLC1A5 / Fold change vs veh, SLC1A5 / RFU, SLMO2 / Fold change vs veh, SLMO2 / RFU, ABCC4 / Fold change vs veh, ABCC4 / RFU, LOC101060439 /// RAP1B / Fold change vs veh, LOC101060439 /// RAP1B / RFU, RFX7 / Fold change vs veh, RFX7 / RFU, GTPBP10 / Fold change vs veh, GTPBP10 / RFU, CNEP1R1 / Fold change vs veh, CNEP1R1 / RFU, BIVM-ERCC5 /// ERCC5 / Fold change vs veh, BIVM-ERCC5 /// ERCC5 / RFU, ILF3 / Fold change vs veh, ILF3 / RFU 11762660_at / Fold change /veh 11762660_at / RFU VCAN (11757783_s_at) / Fold change /veh VCAN (11757783_s_at) / RFU DDX43 (11728927_at) / Fold change /veh DDX43 (11728927_at) / RFU KRT8 (11758188_x_at) / Fold change /veh KRT8 (11758188_x_at) / RFU NKD1 (11759106_at) / Fold change /veh NKD1 (11759106_at) / RFU SRD5A1 (11742802_a_at) / Fold change /veh SRD5A1 (11742802_a_at) / RFU TPSAB1 /// TPSB2 (11721975_s_at) / Fold change /veh TPSAB1 /// TPSB2 (11721975_s_at) / RFU GSTM3 (11746129_a_at) / Fold change /veh GSTM3 (11746129_a_at) / RFU IL23R (11737362_x_at) / Fold change /veh IL23R (11737362_x_at) / RFU TMEM51 (11727254_a_at) / Fold change /veh TMEM51 (11727254_a_at) / RFU PIWIL2 (11732686_x_at) / Fold change /veh PIWIL2 (11732686_x_at) / RFU ORM1 (11744905_x_at) / Fold change /veh ORM1 (11744905_x_at) / RFU CCDC152 (11743942_at) / Fold change /veh CCDC152 (11743942_at) / RFU ECM1 (11717891_a_at) / Fold change /veh ECM1 (11717891_a_at) / RFU IL23R (11748794_a_at) / Fold change /veh IL23R (11748794_a_at) / RFU TNFAIP8L3 (11732012_x_at) / Fold change /veh TNFAIP8L3 (11732012_x_at) / RFU MBOAT4 (11741988_at) / Fold change /veh MBOAT4 (11741988_at) / RFU 11764193_at / Fold change /veh 11764193_at / RFU TMEM53 (11763286_at) / Fold change /veh TMEM53 (11763286_at) / RFU MAGEB2 (11727129_at) / Fold change /veh MAGEB2 (11727129_at) / RFU TMEM200A (11744735_a_at) / Fold change /veh TMEM200A (11744735_a_at) / RFU CCDC152 (11751479_a_at) / Fold change /veh CCDC152 (11751479_a_at) / RFU FAM211A (11726209_a_at) / Fold change /veh FAM211A (11726209_a_at) / RFU RGS16 (11746705_a_at) / Fold change /veh RGS16 (11746705_a_at) / RFU VCAN (11755009_s_at) / Fold change /veh VCAN (11755009_s_at) / RFU RHOB (11743442_s_at) / Fold change /veh RHOB (11743442_s_at) / RFU RGS16 (11720943_a_at) / Fold change /veh RGS16 (11720943_a_at) / RFU RGS16 (11720944_at) / Fold change /veh RGS16 (11720944_at) / RFU, VPS4B / Fold change vs veh, VPS4B / RFU, CREB1 / Fold change vs veh, CREB1 / RFU, DNAJC13 / Fold change vs veh, DNAJC13 / RFU, GNAQ / Fold change vs veh, GNAQ / RFU, CDK5R1 / Fold change vs veh, CDK5R1 / RFU, ZRANB3 / Fold change vs veh, ZRANB3 / RFU, CUL4A / Fold change vs veh, CUL4A / RFU, CCNY / Fold change vs veh, CCNY / RFU, UFL1 / Fold change vs veh, UFL1 / RFU, COG3 / Fold change vs veh, COG3 / RFU, DIAPH2 / Fold change vs veh, DIAPH2 / RFU, SKA2 / Fold change vs veh, SKA2 / RFU, AFF3 / Fold change vs veh, AFF3 / RFU, LMF1 / Fold change vs veh, LMF1 / RFU, IPO11 / Fold change vs veh, IPO11 / RFU, DFFB / Fold change vs veh, DFFB / RFU, FOXP1 / Fold change vs veh, FOXP1 / RFU, CARD8 / Fold change vs veh, CARD8 / RFU, STRN3 / Fold change vs veh, STRN3 / RFU, ADK / Fold change vs veh, ADK / RFU, RASSF2 / Fold change vs veh, RASSF2 / RFU, WIPF1 / Fold change vs veh, WIPF1 / RFU, LARP1B / Fold change vs veh, LARP1B / RFU, RASA1 / Fold change vs veh, RASA1 / RFU, RB1 / Fold change vs veh, RB1 / RFU, PPFIA1 / Fold change vs veh, PPFIA1 / RFU, MAT2A / Fold change vs veh, MAT2A / RFU, CCT5 / Fold change vs veh, CCT5 / RFU, WDR92 / Fold change vs veh, WDR92 / RFU, CUX1 / Fold change vs veh, CUX1 / RFU, TTC7A / Fold change vs veh, TTC7A / RFU, TMEM135 / Fold change vs veh, TMEM135 / RFU, DEPTOR / Fold change vs veh, DEPTOR / RFU, CPM / Fold change vs veh, CPM / RFU, DNAJB6 / Fold change vs veh, DNAJB6 / RFU, CACNA2D3 / Fold change vs veh, CACNA2D3 / RFU, DTX4 / Fold change vs veh, DTX4 / RFU, TFCP2 / Fold change vs veh, TFCP2 / RFU, GMCL1 /// GMCL1P1 / Fold change vs veh, GMCL1 /// GMCL1P1 / RFU, AEBP2 / Fold change vs veh, AEBP2 / RFU, SNHG1 /// SNORD22 /// SNORD25 /// SNORD26 /// SNORD27 /// SNORD28 /// SNORD29 /// SNORD31 / Fold change vs veh, SNHG1 /// SNORD22 /// SNORD25 /// SNORD26 /// SNORD27 /// SNORD28 /// SNORD29 /// SNORD31 / Fold change (Aza/veh), C12orf56 (ProbeSet 11735607_a_at) / Fold change (ACY-1035/veh), C12orf56 (ProbeSet 11735607_a_at) / Fold change (Aza/veh), FGFR1OP (ProbeSet 11751329_s_at) / Fold change (ACY-1035/veh), FGFR1OP (ProbeSet 11751329_s_at) / Fold change (Aza/veh), VPS36 (ProbeSet 11739960_a_at) / Fold change (ACY-1035/veh), VPS36 (ProbeSet 11739960_a_at) / RFU SYPL1 (11715823_x_at) / Fold change /veh SYPL1 (11715823_x_at) / RFU IGFBP7 (11715501_s_at) / Fold change /veh IGFBP7 (11715501_s_at) / RFU REEP3 (11722064_at) / Fold change /veh REEP3 (11722064_at) / RFU IGLL1 (11728026_x_at) / Fold change /veh IGLL1 (11728026_x_at): dose or concentration left out as unconfirmed
Settings: MV-4-11 cells, 48 hours

Nc1ccc(-c2cccs2)cc1NC(=O)c1ccc2c(c1)cc(C1CC1)n2CCN1CCOCC1 [ACY-1035]
RFU TMEM136 (11760407_x_at): 15.13 RFU

From PMC5218480 (PLoS ONE, 2017)
